Values of other authors, collected in patent US8372797B2, “Treatment of erectile dysfunction by stem cell therapy” (Creative Medical Health, Inc., priority 2006, dated 2013).

Tests used:
[1] = tested on: hypercholesterolemic rabbits; conditions: systemic administration
[2] = tested on: hypercholesterolemic rabbits; conditions: two 2.5 microgram doses separated by a 3-week interval into corporal tissue
diabetic rats = conditions: intracavernous, gelatin microbeads
[3] = tested on: model of rat diabetes associated ED; conditions: exogenous administration

Substance	histological changes in the corpus cavernosum [1]	corporal relaxation and ability to generate NO [2]	erectile function (diabetic rats)	erectile function [3]
bFGF: basic fibroblast growth factor, a known inducer of angiogenesis	favorable histological changes	increase corporal relaxation in response to chemical stimuli	protection of erectile function from diabetes mediated onset	–
superoxide dismutase	–	–	–	increase erectile function
